Tests used:
C57Bl/6 mice = assay: SHIRPA, activity chamber open field and hot plate after single injection; assay type: in vivo, mouse
Protocol: Dosing: (R)-2MeGlu (30, 100, 300, or 900 mg/kg), (S)-2MeGlu (30, 100, 300, or 900 mg/kg), rac-2MeGln (30, 100, 300, or 900 mg/kg) and vehicle (PBS) were administered at 10 ml/kg IP dosing volume. Three mice were dosed once with the assigned drug (100, 300, or 900 mg/kg) or vehicle and immediately placed in a new cage for novel cage observation. Subsequently, six mice were dosed once with the assigned drug (30 or 100 mg/kg) or vehicle and tested by SHIRPA, activity chamber, and then hot plate tests.
Hot Plate apparatus (IITC Inc. Model 39) was set to 55° C.±0.2. On testing day, mice were placed on the surface of the hot plate and covered by a transparent glass cylinder (25 cm high and 12 cm diameter). A 30 second cutoff time was assigned. A remote foot-switch pad was used to control the start/stop/reset function. Latency time was recorded when hind paw licking or jumping off first occurred.
The SHIRPA preliminary screen designed by Rogers et al. (1997) was modified and used to assess the general health and behavioral traits of the mice for the initial five minutes after drug administration. The test was conducted in three different testing locations: A cylindrical clear plastic viewing jar (15 cm height×10 cm diameter), a polycarbonate cage (Arena) with 10 cm×10 cm squares on the floor, and a 1 cm×1 cm wire grid. The test began by placing the mouse in the clear plastic viewing jar for 60 seconds, and the behavioral parameters were monitored and recorded. The mouse was then transferred to an open-top arena by releasing them from 25 cm above the floor of the arena. Upon completion of monitoring the parameters inside the arena, the mouse was removed from the arena by the tail. Behavioral parameters monitored were according to Portmann et al. (2014).
Assessment was made in an Open Field Activity Arena (Med Associates Inc., St. Albans, VT. Model ENV-515) mounted with three planes of infrared detectors within a specially designed sound-attenuating chamber (Med Associates Inc., St. Albans, VT. MED-017M-027). The arena was 43 cm (L)×43 cm (W)×30 cm (H) and the sound-attenuating chamber was 74 cm (L)×60 cm (W)×60 cm (H). The mice were placed in the corner of the testing arena and allowed to explore the arena for 60 min while being tracked automatically. Parameters measured include distance moved, velocity, rearing, and times spent in the periphery and center of the Arena. Periphery was defined as the zone 5 cm away from the arena wall. The Arena was cleaned with a 1% Virkon solution at the end of the trial. […] The novel cage protocol is conducted on the benchtop in a lighted room using a clean home cage, and tests habituation using video recording and scoring of behavioral performance. Moreover, the novel cage allows the tester to visualize any other side effects such as seizure or repetitive jumping. The activity chamber is in an enclosed box, and the test is done in the dark, without bedding, and in a sound isolating chamber. The activity chamber measures distance moved using infrared beams and without video recordings.
Exploratory behavioral tests were performed exactly as previously described by us using 2-month-old C57Bl/6 male mice, Example 1. First, we assessed safety and tolerability of acute exposure to 4APA enantiomers in 22 mice by novel cage observation at 100, 300, or 900 mg/kg IP compared to vehicle (PBS) IP (n=3 or 4 mice per group without sample calculation, based on our previous study. Next, we evaluated 24 drug naïve mice with a 23-measure battery of neurologic dysfunction in mice (SHIRPA) (Rogers et al., 2001), automated activity chamber assessment, and hot plate latency acutely following 30 or 100 mg/kg IP compared to vehicle IP (n=4 or 5 mice per group). No exclusion criteria were predetermined and no randomization was performed to allocate subjects in the study.

[1] = biological target: T1, human glutamine synthetase (Homo sapiens, UniProt P15104); assay: Catalysis of 2MeGlu C5-amidation by glutamine synthetase; assay type: biochemical
T1 construct: purchased Abcam ab222354
Protocol: The procedure was adapted from an existing protocol. To a reaction mixture in a 1.5 mL microcentrifuge tube containing 10 mM substrate, 10 mM ATP, 20 mM MgCl2, 40 mM NH4Cl, 25 mM 2-mercaptoethanol in 100 mM imidazole-HCl buffer pH 7.0, recombinant human glutamine synthetase (final concentration: 5 ng/mL) was added. The tubes were incubated in a preheated thermomixer at 37° C. and shaken at 600 rpm (30 s on, 30 s off). 5 μL aliquots were collected in triplicate every 5 min and immediately diluted with 195 μL of cold 60% ACN containing 10 μM Glu-d5 and Gln-d5 as internal standards in a 96 well plate. After collecting all samples, 200 μL of ACN was added to all wells and the plate was shaken at 1000 rpm for 5 min at room temperature, and then stored at −80° C. until analysis.

mGluR2 = biological target: T2, mGluR2 (Homo sapiens, UniProt Q14416); assay: radioligand binding assay, recombinant Chem-1 cells
T2 construct: host or cells: Chem-1 cells
Protocol: Nonspecific AMPA, kainate and NMDA binding assays were performed by Eurofins Discovery (Cerep) using rat cerebral cortex membranes and radiolabeled [^3H]AMPA, [^3H]kainic acid and [^3H]CGP 39653, respectively. All compounds were tested at a single concentration of 100 uM in triplicate. mGluR1, mGluR2, mGluR5 and GABAB binding assays were performed by Eurofins Discovery. mGluR1 assay was performed using rat cerebellum membranes and radiolabeled [^3H]quisqalic acid. mGluR2 assay was performed using recombinant Chem-1 cells and [^3H]LY341495. mGluR5 and GABAB binding assays were performed using recombinant CHO-K1 cells and […], respectively. All compounds were tested at a single concentration of 100 uM in triplicate.
All receptor assays were performed exactly as described in Example 1. Functional assays of all GABAA, NMDA (GluN2A-GluN2D) and AMPA (GluA2) receptor subunits were performed by SB Drug Discovery as a part of their CNS discovery panel using FLIPR technology. All compounds were tested at 7 concentrations in triplicate and EC50/IC50 was determined where applicable. Functional GABAB assay was performed by Eurofins Discovery (Cerep) using Ca^2+-dependent fluorimetry in RBL cells expressing human GABAB (B1/B2) receptor. All compounds were tested at a single concentration of 100 uM in triplicate. […]

[2] = single 30 mg/kg IP, only at 11 minutes post injection
[3] = single 100 mg/kg IP, up to 6 minutes post injection

T1 sequence (P15104 whole entry): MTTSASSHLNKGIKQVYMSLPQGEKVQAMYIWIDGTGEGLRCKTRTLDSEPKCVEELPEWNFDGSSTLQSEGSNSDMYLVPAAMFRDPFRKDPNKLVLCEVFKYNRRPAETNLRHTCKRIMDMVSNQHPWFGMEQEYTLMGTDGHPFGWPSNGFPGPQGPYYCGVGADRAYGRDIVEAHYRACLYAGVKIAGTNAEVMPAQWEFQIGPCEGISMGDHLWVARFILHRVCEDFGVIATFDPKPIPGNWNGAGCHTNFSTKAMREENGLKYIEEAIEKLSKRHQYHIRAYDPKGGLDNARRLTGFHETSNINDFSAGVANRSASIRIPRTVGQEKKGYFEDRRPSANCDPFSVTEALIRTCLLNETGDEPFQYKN
T2 sequence (Q14416 19-872): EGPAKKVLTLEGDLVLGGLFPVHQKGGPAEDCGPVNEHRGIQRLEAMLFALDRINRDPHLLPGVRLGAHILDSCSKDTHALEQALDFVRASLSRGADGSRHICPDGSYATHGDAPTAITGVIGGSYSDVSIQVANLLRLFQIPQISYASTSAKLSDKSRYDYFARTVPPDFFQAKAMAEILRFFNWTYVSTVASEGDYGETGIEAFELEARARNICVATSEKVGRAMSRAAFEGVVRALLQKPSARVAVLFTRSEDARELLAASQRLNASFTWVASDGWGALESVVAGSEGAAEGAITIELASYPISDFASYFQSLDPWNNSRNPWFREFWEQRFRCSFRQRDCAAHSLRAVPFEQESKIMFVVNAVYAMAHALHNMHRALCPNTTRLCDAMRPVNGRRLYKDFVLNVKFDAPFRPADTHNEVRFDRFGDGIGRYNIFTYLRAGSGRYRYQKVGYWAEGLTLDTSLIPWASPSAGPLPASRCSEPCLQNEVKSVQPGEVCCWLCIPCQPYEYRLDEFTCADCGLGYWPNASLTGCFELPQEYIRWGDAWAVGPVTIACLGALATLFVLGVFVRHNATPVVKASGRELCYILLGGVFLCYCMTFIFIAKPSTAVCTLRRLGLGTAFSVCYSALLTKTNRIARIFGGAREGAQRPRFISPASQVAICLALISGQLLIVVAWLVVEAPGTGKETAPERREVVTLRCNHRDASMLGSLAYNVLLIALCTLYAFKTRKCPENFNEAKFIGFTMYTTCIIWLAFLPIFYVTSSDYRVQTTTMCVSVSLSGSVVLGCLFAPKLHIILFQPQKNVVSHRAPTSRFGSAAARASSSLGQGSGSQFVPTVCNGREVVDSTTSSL

SMILES	distance moved in the activity chamber vs vehicle (C57Bl/6 mice; [2])	distance moved in the activity chamber vs vehicle (C57Bl/6 mice; [3])	substrate of GS (amidation to 2MeGln) [1]	inhibition at 100 µM (mGluR2) [%]
CC(N)(CCC(N)=O)C(=O)O (racemic) [rac-2MeGln, rac-2-methylglutamine]	modest but significant reduction	not significantly different from vehicle at any time point	–	–
C[C@@](N)(CCC(=O)O)C(=O)O [(R)-2MeGlu, (R)-2-methylglutamic acid]	modest but significant reduction	significantly reduced	not a substrate	-3
C[C@](N)(CCC(=O)O)C(=O)O [(S)-2MeGlu, (S)-2-methylglutamic acid]	not significantly different	significantly reduced	substrates	25

Source: patent US12589087B2, “Enantiomer selective action on neurotransmission” (The Board of Trustees of the Leland Stanford Junior …, priority 2021, dated 2026)
